What was measured:
[1] = Partition coefficient 1-octanol/phosphate buffer; format: physicochemical; settings: pH 7.4, 1-octanol and phosphate buffer
Procedure: Partition coefficients were measured by mixing the [^18F]tracer with 3 g each of 1-octanol and buffer (0.1 M phosphate, pH 7.4) in a test tube. The test tube was vortexed for 3 min at room temperature, followed by centrifugation for 5 min. Two weighed samples (0.5 g each) from the 1-octanol and buffer layers were counted in a well counter. The partition coefficient was determined by calculating the ratio of cpm/g of 1-octanol to that of buffer. Samples from the 1-octanol layer were re-partitioned until consistent partitions of coefficient values were obtained. Values are the mean±SEM of three independent experiments, each in duplicates.

VMAT2 = VMAT2 (Rattus norvegicus, UniProt Q01827); experiment: Blocking of pancreatic signal by DTBZ in rats; format: in vivo; set-up: from tissue; host or cells: living rats; organs dissected after iv injection; settings: 30 min, DTBZ 3.8 mg/kg pretreatment
Procedure: Rats were pretreated with non-radiolabeled DBTZ (3.8 mg/kg) five minutes prior to injection with (+)-6b.

[2] = Biodistribution in normal rats; format: in vivo; settings: IV
Procedure: While under isoflurane anesthesia, 0.15 mL of a 0.1% bovine serum albumin solution containing [^18F]tracers (10-20 μCi) were injected directly into the tail vein of ICR mice (22-25 g, male) The mice (n=3 for each time point) were sacrificed by cervical dislocation at indicated time points post injection. The organs of interest were removed and weighed, and the radioactivity was counted with an automatic gamma counter. The percentage dose per organ was calculated by a comparison of the tissue counts to suitably diluted aliquots of the injected material. Total activities of blood were calculated under the assumption that they were 7% of the total body weight. The % dose/g of samples was calculated by comparing the sample counts with the count of the diluted initial dose.
The ability of (+)-6b to target the pancreas was shown in normal rats. Using the methods described above under Example 6, the biodistribution of (+)-6b after IV injection in twelve normal rats was measured. For the organs studied, the pancreas had the highest % dose/gram within 30 minutes after injection. Also shown are data indicating distribution in the striatum, which is another area rich in VMAT-2 receptors.

[3] = Baboon microPET imaging (FIG. 7); format: in vivo; settings: iv, 7 mCi, 70-90 min
[4] = Metabolic stability in mouse brain; format: in vivo, mice; settings: mouse striatum, 30 minutes post-injection, ethyl acetate extraction/TLC
Procedure: Two mice were injected with 200 μCi [^18F]FP-(+)-DTBZ and sacrificed at 30 minutes post-injection. The brains were removed and the striatal regions were dissected out. The striatal homogenates (prepared in PBS, 10% w/v) were extracted with 0.5 mL of ethyl acetate in the presence of a small amount of carrier (10 μg of […]). Extraction was repeated three times and the ethyl acetate layers and the buffer layers were counted separately to determine the percent extracted. […] A control sample ([^18F]FP-(±)-DTBZ mixed with normal mouse striatal homogenates in situ) was carried out in parallel for comparison.

VMAT2 sites = VMAT2 sites (Mus musculus, UniProt Q8BRU6); settings: lesioned mice
Chain of VMAT2 sites (Q8BRU6 whole entry): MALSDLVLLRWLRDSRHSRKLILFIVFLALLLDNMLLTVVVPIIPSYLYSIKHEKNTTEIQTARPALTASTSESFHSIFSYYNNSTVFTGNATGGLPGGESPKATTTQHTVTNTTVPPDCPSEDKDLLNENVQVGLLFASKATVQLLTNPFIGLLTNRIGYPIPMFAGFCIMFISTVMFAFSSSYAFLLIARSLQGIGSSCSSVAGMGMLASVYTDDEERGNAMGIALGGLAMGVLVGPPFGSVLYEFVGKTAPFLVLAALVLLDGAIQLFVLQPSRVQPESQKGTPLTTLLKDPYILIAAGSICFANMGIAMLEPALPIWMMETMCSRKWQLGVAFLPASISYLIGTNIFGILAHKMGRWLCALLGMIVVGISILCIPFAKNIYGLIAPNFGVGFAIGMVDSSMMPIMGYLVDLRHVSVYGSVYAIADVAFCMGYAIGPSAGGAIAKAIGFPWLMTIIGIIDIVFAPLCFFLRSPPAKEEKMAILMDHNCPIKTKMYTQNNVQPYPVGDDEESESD
Text: Thirty minutes after injection, the mice were sacrificed and the brains removed. Different regions corresponding to striatum (ST), hippocampus (HP), cerebellum (CB), and cortex (CX) were dissected. In particular, the lesioned region was separated from non-lesioned area of the striatal tissues. Samples were counted in a gamma counter with two different window settings for F-18 and I-125, respectively, to obtain the regional distribution of each tracer.
To measure the degree of lesion, a dual-isotope experiment comparing the striatal uptakes in lesioned vs. unlesioned sites using [^18F]FP-DTBZ was performed. A marker [^125I]IPT (selective for dopamine transporters) was injected simultaneously.

Chain of VMAT2 (Q01827 whole entry): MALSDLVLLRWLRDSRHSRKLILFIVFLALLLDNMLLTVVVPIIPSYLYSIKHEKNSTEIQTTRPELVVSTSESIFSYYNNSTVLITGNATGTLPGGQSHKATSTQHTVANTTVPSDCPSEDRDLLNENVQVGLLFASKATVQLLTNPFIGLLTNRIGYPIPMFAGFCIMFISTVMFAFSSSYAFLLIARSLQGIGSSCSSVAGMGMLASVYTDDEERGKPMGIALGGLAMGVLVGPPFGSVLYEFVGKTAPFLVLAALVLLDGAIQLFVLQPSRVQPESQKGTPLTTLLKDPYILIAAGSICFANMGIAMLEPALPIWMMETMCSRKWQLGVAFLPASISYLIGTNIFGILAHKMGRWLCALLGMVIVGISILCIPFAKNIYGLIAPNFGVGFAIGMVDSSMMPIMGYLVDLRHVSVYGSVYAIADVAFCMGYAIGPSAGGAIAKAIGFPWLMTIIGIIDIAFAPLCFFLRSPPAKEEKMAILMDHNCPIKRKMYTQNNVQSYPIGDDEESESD

Compound: COc1cc2c(cc1OCCC[18F])CCN1CC(CC(C)C)C(O)CC21 (racemic) [[^18F]6b]
- logD at 3 min [1]: 2.61

Compound: COc1cc2c(cc1OCCC[18F])CCN1C[C@@H](CC(C)C)[C@H](O)C[C@H]21 [[^18F]-(+)-6b]
- Blocking, Pancreas (VMAT2): 30%
- Blocking, Striatum (VMAT2): > 90%
- Biodistribution Blood ([2]; 2 min): 0.26 ± 0.03 % dose/g
- Biodistribution Brain ([2]; 2 min): 0.71 ± 0.05 % dose/g
- Biodistribution Cerebellum ([2]; 2 min): 0.63 ± 0.03 % dose/g
- Biodistribution Cortex ([2]; 2 min): 0.65 ± 0.02 % dose/g
- Biodistribution Heart ([2]; 2 min): 0.71 ± 0.07 % dose/g
- Biodistribution Hippocampus ([2]; 2 min): 0.68 ± 0.07 % dose/g
- Biodistribution Kidney ([2]; 2 min): 2.10 ± 0.17 % dose/g
- Biodistribution Liver ([2]; 2 min): 3.53 ± 0.56 % dose/g
- Biodistribution Lung ([2]; 2 min): 0.94 ± 0.04 % dose/g
- Biodistribution Muscle ([2]; 2 min): 0.14 ± 0.03 % dose/g
- Biodistribution Pancreas ([2]; 2 min): 2.51 ± 0.22 % dose/g
- Biodistribution Skin ([2]; 2 min): 0.23 ± 0.05 % dose/g
- Biodistribution Spleen ([2]; 2 min): 1.46 ± 0.15 % dose/g
- Biodistribution Striatum ([2]; 2 min): 1.52 ± 0.20 % dose/g
- Biodistribution Blood ([2]; 30 min): 0.23 ± 0.06 % dose/g
- Biodistribution Brain ([2]; 30 min): 0.62 ± 0.08 % dose/g
- Biodistribution Cerebellum ([2]; 30 min): 0.40 ± 0.04 % dose/g
- Biodistribution Cortex ([2]; 30 min): 0.44 ± 0.06 % dose/g
- Biodistribution Heart ([2]; 30 min): 0.41 ± 0.03 % dose/g
- Biodistribution Hippocampus ([2]; 30 min): 0.61 ± 0.12 % dose/g
- Biodistribution Kidney ([2]; 30 min): 1.06 ± 0.06 % dose/g
- Biodistribution Liver ([2]; 30 min): 2.82 ± 0.24 % dose/g
- Biodistribution Lung ([2]; 30 min): 0.69 ± 0.03 % dose/g
- Biodistribution Muscle ([2]; 30 min): 0.17 ± 0.02 % dose/g
- Biodistribution Pancreas ([2]; 30 min): 5.50 ± 0.97 % dose/g
- Biodistribution Skin ([2]; 30 min): 0.28 ± 0.01 % dose/g
- Biodistribution Spleen ([2]; 30 min): 1.03 ± 0.18 % dose/g
- Biodistribution Striatum ([2]; 30 min): 2.25 ± 0.48 % dose/g
- Biodistribution Blood ([2]; 60 min): 0.18 ± 0.02 % dose/g
- Biodistribution Brain ([2]; 60 min): 0.42 ± 0.04 % dose/g
- Biodistribution Cerebellum ([2]; 60 min): 0.28 ± 0.04 % dose/g
- Biodistribution Cortex ([2]; 60 min): 0.27 ± 0.07 % dose/g
- Biodistribution Heart ([2]; 60 min): 0.30 ± 0.10 % dose/g
- Biodistribution Hippocampus ([2]; 60 min): 0.36 ± 0.08 % dose/g
- Biodistribution Kidney ([2]; 60 min): 0.84 ± 0.09 % dose/g
- Biodistribution Liver ([2]; 60 min): 2.47 ± 0.30 % dose/g
- Biodistribution Lung ([2]; 60 min): 0.54 ± 0.14 % dose/g
- Biodistribution Muscle ([2]; 60 min): 0.13 ± 0.01 % dose/g
- Biodistribution Pancreas ([2]; 60 min): 4.98 ± 0.24 % dose/g
- Biodistribution Skin ([2]; 60 min): 0.23 ± 0.04 % dose/g
- Biodistribution Spleen ([2]; 60 min): 0.83 ± 0.18 % dose/g
- Biodistribution Striatum ([2]; 60 min): 1.85 ± 0.26 % dose/g
- Biodistribution Blood ([2]; 120 min): 0.12 ± 0.03 % dose/g
- Biodistribution Brain ([2]; 120 min): 0.35 ± 0.02 % dose/g
- Biodistribution Cerebellum ([2]; 120 min): 0.20 ± 0.01 % dose/g
- Biodistribution Cortex ([2]; 120 min): 0.20 ± 0.06 % dose/g
- Biodistribution Heart ([2]; 120 min): 0.22 ± 0.01 % dose/g
- Biodistribution Hippocampus ([2]; 120 min): 0.23 ± 0.03 % dose/g
- Biodistribution Kidney ([2]; 120 min): 0.55 ± 0.06 % dose/g
- Biodistribution Liver ([2]; 120 min): 1.47 ± 0.13 % dose/g
- Biodistribution Lung ([2]; 120 min): 0.35 ± 0.03 % dose/g
- Biodistribution Muscle ([2]; 120 min): 0.10 ± 0.01 % dose/g
- Biodistribution Pancreas ([2]; 120 min): 2.76 ± 0.61 % dose/g
- Biodistribution Skin ([2]; 120 min): 0.16 ± 0.02 % dose/g
- Biodistribution Spleen ([2]; 120 min): 0.48 ± 0.04 % dose/g
- Biodistribution Striatum ([2]; 120 min): 1.42 ± 0.54 % dose/g
- microPET uptake [3]: no indication of skull (bone) uptake
- degradation [4]: less than 5%
- correlation (r) of lesioned-site uptake with [125I]IPT data (VMAT2 sites): 0.95

— patent publication US8562949B2, “Radiolabeled dihydrotetrabenazine derivatives and their use as imaging agents” (The Trustees of the University of Pennsylvania, priority 2006, dated 2013)
